Measured values as given in patent US10533018B2, “Antimicrobial prochelators to target drug-resistant bacteria and methods of making and using the same” (Duke University, priority 2015, dated 2020).

Legend:
[1] = Calcein fluorescence assay for Cu competition; format: physicochemical
Protocol: FIG. 11: To solutions of 2 μM calcein in pH 7.4 PBS was added 2.4 μM CuCl2 and the samples were fully equilibrated at room temperature for 2 hours. Next, 20 μM TAT, 20 μM DB4-162, 0.1 units/mL β-lactamase were added and the fluorescence at 500 nm was recorded after one hour.
A calcein fluorescence assay for metal competition was utilized in order to evaluate the relative metal-binding affinity of DB4-51 compared to PT. The fluorescence intensity of the probe calcein is quenched by more than 90% upon binding Cu^2+. […] However, when incubated with 10 equivalents of DB4-51 and 0.1 units/mL Type III β-lactamase from Enterobacter cloacae, there is an 85% return in calcein fluorescence, which correlates well with the 90% return observed for PT itself at the same concentration.
FIG. 4: Relative Cu binding assay with DB4-51 and PT against calcein. Solutions of 2 μM calcein and 2.4 μM CuCl2 in pH 7.4 PBS were equilibrated at room temperature for 2 hours prior to addition of 20 μM PT, 20 μM DB4-51, and/or 0.1 units/mL β-lactamase (Bla).
The calcein assay was utilized in order to assess the relative copper chelating ability of the prochelator and TAT. The fluorescence emission of calcein is quenched by more than 90% in the presence of 1.2 equivalents of CuCl2 (FIG. 11). […] The addition of 0.1 units/mL β-lactamase alone has no effect on the quenched fluorescence signal of the Cu-calcein solution. […] However, when incubated with 10 equivalents of DB4-162 and 0.1 units/mL β-lactamase there is a 90% return in calcein fluorescence. […] While it is unclear why 10 equivalents of TAT are insufficient to out-compete calcein for copper, it may be related to the propensity of TAT to form other species in aqueous media.

[2] = tested on: susceptible E. coli HB101 K-12 (no β-lactamase); assay: Broth microdilution (preliminary, Table 1), susceptible K-12; format: cell-based, Escherichia coli; settings: for IC50: Escherichia coli, Susceptable K-12 E. coli, LB, OD600, preliminary results
Protocol: In order to determine the antibiotic activity of DB4-51, a debilitated strain of Escherichia coli (HB101 K-12) was transformed with the pGLO plasmid from Bio-Rad in order to express β-lactamase. This transformation was confirmed by growing on a selective medium containing 100 μg/ml ampicillin in Lennox LB with 1.5% agar. A broth microdilution assay was employed to determine the relative activity of DB4-51 against susceptible (HB 101 K-12, no β-lactamase) and resistant (HB 101 K-12 transformed to express β-lactamase) E. coli. Using Lennox LB as the medium. serial dilutions of the test compounds were performed in a 96-well plate and then inoculated with E. coli before incubating for 16-20 hours at 35° C. The bacterial growth was monitored by recording each well's absorbance at 600 nm (OD600.) The OD600 values of E. coli suspensions incubated with various compounds were compared in order to assess their activities.
FIG. 7: OD600 of susceptible and resistant K-12 E. coli cultures against DB4-51 and known antibiotics as a function of concentration. Ampicillin has a penicillin core and cephalexin has a cephalosporin core. Cultures were grown in LB broth at 37° C. while shaking at 200 rpm for 18 hours and then diluted to an OD600 of 0.005 before adding the compounds. Plates were grown at 35° C. while shaking at 200 rpm and the OD600 was recorded after 18 hours.
Table 1: Calculated IC50 values for DB4-51, cephalexin, ampicillin, and pyrithione. These values were derived by fitting the data to a log dose-response curve and reporting the concentration corresponding to half the maximum OD600 value for each compound.

[3] = 2 μM calcein + 2.4 μM CuCl2, pH 7.4 PBS, 20 μM (10 equivalents) compound alone, 1 h
[4] = as above, 10 equivalents compound + 0.1 units/mL β-lactamase

SMILES | return in calcein fluorescence [1, 3] | IC50 [2] | activity against susceptible strain (FIG. 7) ([2]; susceptible strain of E. coli) | return in calcein fluorescence [1, 4]
[O-][n+]1ccccc1S [PT, 2-mercaptopyridine N-oxide] | 90% | < 18 µM | – | –
CC1(C)S[C@@H]2[C@H](NC(=O)[C@H](N)c3ccccc3)C(=O)N2[C@H]1C(=O)O [Ampicillin] | – | < 18 µM | very active | –
O=C(Cc1ccccc1)N[C@@H]1C(=O)N2C(C(=O)O)=C(CSc3cccc[n+]3[O-])CS[C@H]12 [DB4-51, 2-((((6R,7R)-2-carboxy-8-oxo-7-(2-phenylacetamido)-5-thia-1-azabicyclo[4.2.0]oct-2-en-3-yl)methyl)thio)pyridine 1-oxide] | does not compete with calcein for Cu binding | 80 µM | – | 85%
Cc1csc(=S)n1OCC1=C(C(=O)O)N2C(=O)[C@@H](NC(=O)Cc3ccccc3)[C@H]2SC1 [DB4-162, (6R,7R)-3-(((4-methyl-2-thioxothiazol-3(2H)-yl)oxy)methyl)-8-oxo-7-(2-phenylacetamido)-5-thia-1-azabicyclo[4.2.0]oct-2-ene-2-carboxylic acid] | approximately 50% | – | – | 90%
